Tested on: Mus musculus
Assay: Percent inhibition of blood glucose concentration measured 30 min after 10 mg/kg dosing to fasted mice followed 15 min later by 1 g/kg oral glucose load
Type: functional

Going from `N[C@H](C(=O)N1CC(F)C(F)C1)C1CCCCC1` (stereo partly specified) to `N[C@H](C(=O)N1CC(F)C1)C1CCCCC1`, the inhibition in vivo at 10 mg/kg rises from 60% to 70%.

Going from `N[C@H](C(=O)N1CC(F)(F)C(F)(F)C1)C1CCCCC1` to `N[C@H](C(=O)N1CC(F)(F)C1)C1CCCCC1`, the inhibition in vivo at 10 mg/kg rises from 59% to 109%.

Compared with `N[C@H](C(=O)N1CCCC1)C1CCCCC1`, `N[C@H](C(=O)N1CCC(F)(F)C1)C1CCCCC1` is higher in inhibition in vivo at 10 mg/kg: 69% for the first, 78% for the second.
